# Experimental data from patent US7238779B2, “Acyl CoA:cholesterol acyltransferase (ACAT-2)” (The Regents of the University of California, priority 1998, dated 2007).
# Tested on: ACAT-2 protein
# Experiment: inhibition of ACAT-2 protein activity
# Assay type: biochemical
# Settings: general statement, concentration not given
row,Compound,activity of the ACAT-2 protein is inhibited by the compound
1,CCCCCCCCCCC(C)(C)C(=O)Nc1c(OC)cc(OC)cc1OC [CI-976],inhibited
2,CC(C)c1cc(C(C)C)c(CC(=O)NS(=O)(=O)Oc2c(C(C)C)cccc2C(C)C)c(C(C)C)c1 [CI-1011],inhibited
3,CC(C)c1cccc(C(C)C)c1NC(=O)NCC1(c2ccc(N(C)C)cc2)CCCC1.Cl [PD 132301-2],inhibited
4,O=C(O)c1cc[c]([Hg][OH])cc1 [PHMB],inhibited
5,O=S(=O)(F)Cc1ccccc1 [PMSF],inhibited
6,CC(=O)[C@H]1CC[C@H]2[C@@H]3CCC4=CC(=O)CC[C@]4(C)[C@H]3CC[C@]12C [progesterone],inhibited
